Reference: ChEMBL document CHEMBL1141448, “Curcumin induces high levels of topoisomerase I- and II-DNA complexes in K562 leukemia cells” (J Nat Prod, 2007)
Calls of active or inactive are those of the source. The calls are words filed in the database; no cut-off is given here.

What was measured:
[1] = test system: K562; assay: Cytotoxicity against human K562 cells after 5 days by XTT assay; type: functional, cell-based; conditions: K562, 120 h
[2] = target: T1, DNA topoisomerase 1 (Homo sapiens) (UniProt P11387); assay: Binding affinity to topoisomerase 1 in human K562 cells assessed as stability of topoisomerase 1-DNA complex at 70 uM after 48 hrs by TARDIS assay; type: cell-based
T1 sequence (whole entry): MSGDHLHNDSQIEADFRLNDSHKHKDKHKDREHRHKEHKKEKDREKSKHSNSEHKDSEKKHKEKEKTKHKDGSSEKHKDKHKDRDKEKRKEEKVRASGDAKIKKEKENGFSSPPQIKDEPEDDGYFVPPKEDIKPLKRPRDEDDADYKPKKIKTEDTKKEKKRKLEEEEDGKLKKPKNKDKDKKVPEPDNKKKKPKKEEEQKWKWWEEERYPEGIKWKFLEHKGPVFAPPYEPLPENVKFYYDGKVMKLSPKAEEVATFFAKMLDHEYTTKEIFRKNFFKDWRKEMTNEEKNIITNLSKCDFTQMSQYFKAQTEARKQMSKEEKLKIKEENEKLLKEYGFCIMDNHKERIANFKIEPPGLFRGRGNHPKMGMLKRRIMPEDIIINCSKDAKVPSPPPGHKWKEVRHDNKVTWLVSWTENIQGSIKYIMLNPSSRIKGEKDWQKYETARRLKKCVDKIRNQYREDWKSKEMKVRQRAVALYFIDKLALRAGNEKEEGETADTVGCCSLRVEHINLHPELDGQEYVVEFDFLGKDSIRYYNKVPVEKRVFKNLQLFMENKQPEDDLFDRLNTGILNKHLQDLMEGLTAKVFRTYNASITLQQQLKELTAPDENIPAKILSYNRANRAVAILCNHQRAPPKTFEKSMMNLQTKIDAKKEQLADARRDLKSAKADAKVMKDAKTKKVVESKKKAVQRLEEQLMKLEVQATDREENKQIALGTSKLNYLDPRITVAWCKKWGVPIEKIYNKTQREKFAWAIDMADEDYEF

[3] = test system: K562; assay: Binding affinity to topoisomerase 2 in human K562 cells assessed as stability of topoisomerase 2-DNA complex at 70 uM after 48 hrs by TARDIS assay; type: cell-based
[4] = target: T1, DNA topoisomerase 1 (Homo sapiens); assay: Reversal of drug-induced topoisomerase 1-DNA complex in presence of N-acetyl cysteine at 70 uM after 24 hrs
[5] = Reversal of drug-induced topoisomerase 2-DNA complex in presence of N-acetyl cysteine at 70 uM after 24 hrs
[6] = test system: K562; assay: Binding affinity to topoisomerase 2 in human K562 cells assessed as increase in etoposide-induced topoisomerase 2-DNA complex at 20-70 uM after 24 hrs by TARDIS assay; type: cell-based
[7] = test system: K562; assay: Binding affinity to topoisomerase 2 in human K562 cells assessed as increase in […]-induced topoisomerase 2-DNA complex at 20-70 uM after 24 hrs by TARDIS assay; type: cell-based

SMILES | IC50 [1] [µM] | further results
O=C(CC(=O)c1ccccc1)c1ccccc1 [DIBENZOYLMETHANE] | 30.9 | –
CC(=O)[C@]1(O)Cc2c(O)c3c(c(O)c2[C@@H](O[C@H]2C[C@H](N)[C@H](O)[C@H](C)O2)C1)C(=O)c1ccccc1C3=O [IDARUBICIN] | 0.012 | –
CC[C@@]1(O)C(=O)OCc2c1cc1n(c2=O)Cc2cc3ccccc3nc2-1 [CAMPTOTHECIN] | 0.04 | –
COc1cc(/C=C/C(=O)CC(=O)/C=C/c2ccc(O)c(OC)c2)ccc1O [CURCUMIN] | 6.81 | Activity [2]: Active; Activity [3]: Active; Activity [4]: Active; Activity [5]: Active; Activity [6]: Active; Activity [7]: Active
COc1cc(NS(C)(=O)=O)ccc1Nc1c2ccccc2nc2ccccc12 [AMSACRINE] | 0.023 | –
COc1cc([C@@H]2c3cc4c(cc3[C@@H](O[C@@H]3O[C@@H]5CO[C@@H](C)O[C@H]5[C@H](O)[C@H]3O)[C@H]3COC(=O)[C@H]23)OCO4)cc(OC)c1O [ETOPOSIDE] | 0.32 | –
COc1cc(/C=C/C(=O)O)ccc1O [FERULATE] | > 1000 | –
O=C1c2c(O)ccc(O)c2C(=O)c2c(NCCNCCO)ccc(NCCNCCO)c21 [MITOXANTRONE] | 0.0026 | –
